Measurements: patent US11560360B2, “Therapeutic compounds” (ARIZONA BOARD OF REGENTS ON BEHALF OF ARIZONA STATE …, priority 2016, dated 2023)

Key:
[1] = tested on: FRDA fibroblasts (GM04078); experiment: Cytoprotection of BSO-treated FRDA fibroblasts, Live/Dead kit; type: cell-based, human; settings: overnight preincubation, then BSO (5 mM) 48 h (FIG. 7)
Method: Results obtained were verified by running triplicates and repeating experiments in two independent runs.
The ability of test compounds 1-5 to confer cytoprotection to buthionine sulfoximine (BSO)-treated FRDA fibroblasts from oxidative damage-induced death was determined by using simultaneous staining with a two-color fluorescence assay, the Live/Dead® Viability/Cytotoxicity Kit (Molecular Probes, Eugene, Oreg.). The cells were subjected to L-buthionine (S,R)-sulfoximine, an inhibitor of de novo glutathione (GSH) biosynthesis. Oxidative damage-induced death of FRDA fibroblasts was blocked by the test compounds in a concentration dependent manner (FIG. 7). […] The optimal side chain length was 15 carbon atoms.
The ability of the test compounds to confer cytoprotection to BSO-treated FRDA fibroblasts was determined by assessing plasma membrane integrity and intracellular esterase activity using the LIVE/DEAD Viability/Cytotoxicity Kit for mammalian cells according to the manufacturer's protocol. Briefly, FRDA fibroblasts (GM04078) were plated in 96-well microtiter plates at a density of 3000 cell/well (50 μL) (Costar, Corning, N.Y.). The plates were incubated at 37° C. for 24 h in an atmosphere having 95% humidity and 5% CO2 to allow attachment of the cells to the culture plates and to allow the cell density reach 50-60% confluency. The next day the test compounds were dissolved in DMSO, diluted to the appropriate concentrations in fresh cell culture media and the cells were then treated with the test compounds (final DMSO concentration was <0.5%). Plates were incubated at 37° C. overnight in a humidified atmosphere containing 5% CO2 in air. […] Fluorescence intensities were measured with a Spectramax M5 spectrofluorometer (Molecular Devices, Sunnyvale, Calif.) using excitation and emission wavelengths of 485 nm and 525 nm, respectively. […] The viability of non-BSO treated fibroblasts was set as 100%, and the viability of the BSO treated and sample-treated cells was calculated relative to this value. Cell viability was expressed as the percentage of control.

[2] = tested on: FRDA lymphocyte cells (GM15850); experiment: Reactive oxygen species (ROS) assay, DCFH-DA, diethyl maleate-treated FRDA lymphocytes; type: cell-based, human; settings: 16 h pretreatment, 5 mM diethyl maleate 80 min, DCFH-DA (FIG. 5)
Method: The ability of compounds 1-5 to suppress ROS induced by the depletion of cellular glutathione was evaluated in FRDA lymphocytes in a quantitative FACS experiment using dichlorofluorescein diacetate (DCFH-DA) as an indicator of intracellular ROS levels. In cells DCFH-DA is hydrolyzed by esterases to afford 2, 7-dichlorodihydrofluorescein (DCFH). The non-fluorescent DCFH can be oxidized by cellular oxidants generating fluorescent dichlorofluorescein (DCF).
Reactive Oxygen Species (ROS) Assay
Intracellular ROS production was measured in FRDA lymphocyte cells (GM15850, Coriell Cell Repositories, Camden, N.J.) using the oxidant sensitive fluorescent probe 2,7-dichlorodihydrofluorescein diacetate (DCFH-DA) (Molecular Probes) as described previously. […] The samples were analyzed immediately by flow cytometry (C6 Accuri, BD Biosciences, San Jose, Calif.), using a 488 nm excitation laser and the FL1-H channel 530±15 nm emission filter for DCF and FL2-H channel 585±15 nm emission filter for propidium iodide. The generation of ROS, mainly peroxides, was detected as a result of the oxidation of DCFH. In each analysis, 10,000 events were recorded after dead cell and debris were gated out. […] ROS production was evaluated only in living cells which are propidium iodide negative. […] Results were expressed as percentage of ROS scavenging activity or as percentage of the median fluorescence intensity of DCF.

[3] = tested on: FRDA lymphocytes treated with rotenone (complex I inhibition); experiment: Cytoprotection of rotenone-treated FRDA lymphocytes; type: cell-based, human; settings: 12 h preincubation in glucose-free media, then rotenone (50 nM) 24 h or 48 h (FIG. 3)
FRDA lymphocytes [4] = experiment: Cytotoxicity assay in FRDA lymphocytes cultured in glucose free media (galactose), Live/Dead flow cytometry; type: cell-based; settings: FRDA lymphocytes, galactose as sole sugar source, 24 h or 48 h incubation (FIG. 2)
Method: Flow cytometric determination of cell viability by fluorescence labeling was used employing calcein acetoxy-methyl-ester and ethidium homodimer-1 as live and dead cell stains
Cytotoxicity was assessed by the dye exclusion method. Live cells have intact membranes, which exclude a variety of dyes that easily penetrate the damaged, permeable membranes of non-viable cells. Propidium iodide, a membrane impermeant dye, is generally excluded from viable cells, although it can enter non-viable cells and bind to double-stranded DNA by intercalating between base pairs. Compounds 1-5 were tested for their cytotoxicity in FRDA lymphocytes using FACS analysis with propidium iodide. The results are depicted in FIG. 2. From the results it is evident that cytotoxicity decreases with increasing lipophilicity in lower as well as higher concentrations for compounds 1-5.
Evaluation of compounds 1-5 for their cytotoxicity and their ability to function within the mitochondrial respiratory chain was carried out by incubation of the prepared compounds for 24 or 48 h with FRDA lymphocytes. A nutrient-sensitized screening strategy has been used by culturing FRDA cells in galactose as the sole sugar source which forces mammalian cells to rely on mitochondrial oxidative phosphorylation (OXPHOS) to produce their ATP; they also become more sensitive to mitochondrial respiratory chain inhibitors than cells grown in glucose medium. Compounds 1-5 were tested for their cytotoxicity in FRDA lymphocytes using a simultaneous staining with a two-color fluorescence assay, the Live/Dead® Viability/Cytotoxicity Kit (Molecular Probes). This assay is used to measure two recognized parameters of cell viability, intracellular esterase activity and plasma integrity. The membrane-impermeant DNA dye ethidium homodimer-1 (EthD-1) was used to identify dead cells whose plasma membrane integrity was disrupted. The membrane-permeant dye calcein-AM was used to label live cells. It penetrates into the cells where it is metabolized by cytoplasmic esterases and becomes a fluorescent but membrane-impermeant probe which is retained in viable cells. One mL of FRDA lymphocyte cells (5×10^5 cells) was plated in a 24-well plate in glucose free media (galactose 25 mM), treated with the test compounds and incubated at 37° C. for 24 h or 48 h in a humidified atmosphere containing 5% CO2 in air. Cells were collected by centrifugation at 300×g for 3 min and washed with phosphate buffered saline. […] The samples were analyzed immediately by flow cytometry (C6 Accuri, BD Biosciences, San Jose, Calif.), using a 488 nm excitation laser and the and the FL1-H channel 530±15 nm emission filter and the FL2-H channel 585±15 nm. For each analysis 10,000 events were recorded and analyzed using C6 Accuri software (BD Biosciences).

FRDA lymphocytes [5] = experiment: Measurement of cellular ATP concentration (firefly luciferase); type: cell-based, human; settings: glucose free media (25 mM galactose), relative to untreated control (FIG. 6)
Method: Results are expressed as percentage of total ATP relative to untreated control.
ATP levels in FRDA lymphocytes were measured using firefly luciferase. The cells were grown on glucose-free media supplemented with galactose for 24 h prior to the addition of the test compounds. Since cells grown in galactose rely mostly on oxidative phosphorylation (OX-PHOS) to produce their ATP, they become more sensitive to mitochondrial respiratory chain inhibitors than cells grown in glucose medium.
Measurement of Cellular ATP Concentration
Total ATP levels in FRDA lymphocytes with or without partially blocking complex I activity with rotenone (5 nM) were measured using firefly luciferase as a means to measure ATP level. The cells were grown on glucose-free media supplemented with galactose. Since cells grown in galactose rely mostly on oxidative phosphorylation (OXPHOS) to produce their ATP, they become more sensitive to mitochondria respiratory chain inhibitors than cells grown in glucose medium. Briefly, lymphocytes (2×10^5 cell/mL) were plated (1 mL) in 24-well plates, treated with the test compounds, and then incubated at 37° C. for 48 h in a humidified atmosphere containing 5% CO2 in air. FRDA lymphocytes with partial inhibition of complex I, cells were preincubated with test compounds for overnight before rotenone (5 nM) treatment for 24 h. Cells in each well were mixed and transferred (100 μL) to 96-well microtiter black-walled cell culture plates (Costar, Corning, N.Y.). The total intracellular ATP level was measured in a luminator (Clarity™ luminescence microplate reader) using an ATP Bioluminescence Assay Kit (ViaLight®-Plus ATP monitoring reagent kit, Lonza) following the manufacturer's protocol. The total ATP level was expressed as a percentage of untreated control. Data are reported as the mean of at least three independent experiments.

[6] = tested on: mitochondrial inner membrane potential in FRDA lymphocytes; experiment: JC-1 mitochondrial membrane potential (Δψm) assay; type: cell-based, human; settings: 16 h pre-treatment, JC-1, FACS (FIG. 4)
Method: In each analysis, 10000 events were recorded. Depolarization with carbonyl cyanide p-(trifluoromethoxy) phenylhydrazone (FCCP), was used to serve as a positive control.
The ability of 1-5 to maintain mitochondrial membrane potential (ΔΨm) compared to the parent compound MV was studied. ΔΨm was determined using the cationic fluorescent dye 5, 5′, 6, 6′-tetrachloro-1, 1′, 3, 3′-tetraethylbenzimidazolyl carbocyanine iodide (JC-1), which is a lipophilic cation that selectively accumulates in mitochondria due to the negative potential across the inner mitochondrial membrane. The dye exists as a monomer at low concentrations giving a green fluorescence. […] Therefore, mitochondrial depolarization is indicated by a decrease in red/green fluorescence ratio. […]
The ability of the test compounds to depolarize or maintains mitochondrial inner membrane potential (Δψm) was assessed using the JC-1 probe. […] JC-1 is a dual stain, which can identify high membrane potential through J-aggregates (red fluorescence) and low membrane potential through J-monomers (green fluorescence). […] Cells were resuspended in phosphate buffered saline supplemented with 20 mM glucose and were analyzed immediately by FACS (C6 Accuri, BD Biosciences, San Jose, Calif.), using a 488 nm excitation laser and the FL1-H channel 530±15 nm emission filter and the FL2-H channel 585±15 nm. […]

Question: Which results are given for `CCCCCCCCCCCCCCCN(C)c1ccc2nc3ccc(=O)cc-3sc2c1` [Compound 4, 7-(N-Methyl-N-pentadecylamino)-3H-phenothiazin-3-one]?
Answer: cytoprotection from oxidative damage-induced death [1]: better potency than 1 or 2; suppression of ROS induced by depletion of cellular glutathione [2]: more potent and effective in protecting FRDA lymphocytes than the parent compound MV; cytoprotection against rotenone cytotoxicity [3]: protect the cells against rotenone cytotoxicity more efficiently than the parent compound MV

Question: `CCCCCCCCCCN(CCCCCCCCCC)c1ccc2nc3ccc(=O)cc-3sc2c1` [Compound 2, 7-(N,N-Didecylamino)-3H-phenothiazin-3-one] was tested. Which cytotoxicity (FRDA lymphocytes [4]) did it give?
Answer: Its cytotoxicity is “somewhat cytotoxic”.

Question: What about the “cellular ATP levels” value (FRDA lymphocytes [5]) of the same compound?
Answer: The value was “reduces cellular ATP levels in all concentrations”.

Question: For `CCCCCCCCCCCCCCCN(CCCCCCCCCCCCCCC)c1ccc2nc3ccc(=O)cc-3sc2c1` [Compound 3, 7-(N,N-Dipentadecylamino)-3H-phenothiazin-3-one], which “cytoprotection from oxidative damage-induced death” value [1] is on record?
Answer: Its value is “the least effective”.

Question: `CCCCN(CCCC)c1ccc2nc3ccc(=O)cc-3sc2c1` [Compound 1, 7-(N,N-Dibutylamino)-3H-phenothiazin-3-one] was tested. Which cytotoxicity (FRDA lymphocytes [4]) did it give?
Answer: Its cytotoxicity is “somewhat cytotoxic”.

Question: What about the “cellular ATP levels” value (FRDA lymphocytes [5]) of the same compound?
Answer: Its value is “reduces cellular ATP levels in all concentrations”.

Question: Which results are given for `CN(C)c1ccc2nc3ccc(=O)cc-3sc2c1` [MV, Methylene violet, reference compound]?
Answer: preservation of mitochondrial membrane potential (Δψm) [6]: significantly depolarized Δψm; cellular ATP levels (FRDA lymphocytes [5]): strongly reduces cellular ATP levels in a concentration dependent manner

Question: Which “cytoprotection from oxidative damage-induced death” value [1] does the source give for `CCCCCCCCCCCCCCCN(CCCC)c1ccc2nc3ccc(=O)cc-3sc2c1` [Compound 5, 7-(N-Butyl-N-pentadecylamino)-3H-phenothiazin-3-one] here?
Answer: The value was “better potency than 1 or 2”.

Question: What about the “suppression of ROS induced by depletion of cellular glutathione” value [2] of the same compound?
Answer: The value was “more potent and effective in protecting FRDA lymphocytes than the parent compound MV”.

Question: And the “cytoprotection against rotenone cytotoxicity” value [3]?
Answer: Its value is “protect the cells against rotenone cytotoxicity more efficiently than the parent compound MV”.
